Values of other authors, collected in article PMC7395068, “The evolution of strategies to minimise the risk of human drug-induced liver injury (DILI) in drug discovery and development” (Archives of Toxicology, 2020).
Like-named read-outs stand apart in the source and are kept apart here.

Columns and labels:
HepG2 cells [1] = conditions: In vitro Assay; ref O'Brien 2006; cited from earlier work
PHH = conditions: In vitro Assay; ref Albrecht 2019; cited from earlier work
[2] = ref Chen 2016; cited from earlier work
[3] = ref Chen 2011; cited from earlier work
rBsep = conditions: In vitro Assay; ref Dawson 2012; cited from earlier work
[4] = cited from earlier work
[5] = tested on: HepG2 cells, primary human hepatocytes; conditions: In vitro Assay; ref Garside 2014; cited from earlier work
human hepatocytes = conditions: In vitro Assay; ref Xu 2008; cited from earlier work
HepG2 = tested on: HepG2; parameters: method as in Albrecht 2019; conditions: In vitro Assay; ref Albrecht 2019; cited from earlier work
PHH spheroids = conditions: In vitro Assay; ref Vorrink 2018; cited from earlier work
HepG2 cells [6] = conditions: In vitro Assay; ref Persson 2013; cited from earlier work
[7] = tested on: THLE-Null and THLE-3A4 cells; conditions: In vitro Assay; ref Gustafsson 2014; cited from earlier work
[8] = tested on: primary human hepatocytes, NIH3T3 fibroblasts, BSEP, CYP3A4; conditions: In vitro Assay; ref Schadt 2015; cited from earlier work
[9] = tested on: THLE or HepG2 cells, isolated mitochondria, BSEP; conditions: In vitro Assay; ref Aleo 2019; cited from earlier work

Structure (SMILES) | Structural based (HCI) (HepG2 cells [1]) | Cytotoxicity PHH 48 hrs (PHH) | DILI +VE (5-8), DILI -VE (-4) [2] | DILI severity category [2] | DILI Score (FDA) (1-8) [3] | Inhibition of rBsep cutoff<1& cmax u>.2 (rBsep) | Inhibition of rBsep cutoff<3 (rBsep) | In vivo DILI ([4]; ref Albrecht 2019) | In vivo DILI ([4]; ref Dawson 2012) | In vivo DILI ([4]; ref Garside 2014) | In vivo DILI ([4]; ref O'Brien 2006) | In vivo DILI ([4]; ref Xu 2008) | Cluster 1-6 +VE Assay [5] | Structural based (HCI) (human hepatocytes) | Cytotoxicity HepG2 48 hrs (HepG2) | In vivo DILI ([4]; […]) | In vivo DILI ([4]; ref Aleo 2019) | In vivo DILI ([4]; ref Schadt 2015) | Cellular toxicity (3T3 cells) [8] | Combined Assay [8] | further results
NC(N)=Nc1nc(CSCCC(N)=NS(N)(=O)=O)cs1 [famotidine] | +VE | -VE | +VE | vLess-DILI-Concern | 3 | -VE | -VE | -VE | +VE | +VE | +VE | -VE | -VE | -VE | -VE | – | – | – | – | – | –
CC(CCc1ccccc1)NCC(O)c1ccc(O)c(C(N)=O)c1 (centres unmarked) [labetalol] | +VE | +VE | +VE | vMost-DILI-Concern | 8 | – | – | +VE | – | +VE | +VE | +VE | +VE | +VE | +VE | +VE | +VE | – | – | – | In vivo DILI ([4]; ref Persson 2013): +VE; In vivo DILI ([4]; ref Vorrink 2018): +VE; hLiMTs ATP <20 x Cmax (PHH spheroids): -VE; Cluser analysis (HepG2 cells [6]): -VE; Structural based (HCI) (HepG2 cells [6]): -VE
Cc1oncc1C(=O)Nc1ccc(C(F)(F)F)cc1 [leflunomide] | +VE | +VE | +VE | vMost-DILI-Concern | 8 | -VE | +VE | +VE | +VE | +VE | +VE | +VE | -VE | -VE | +VE | – | +VE | +VE | -VE | -VE | THLE-Null [7]: -VE; THLE-Null/3A4 [7]: -VE; In vivo DILI ([4]; ref Gustafsson 2014): +VE; GSH adduct HML [8]: +VE; Hepatocyte cellular toxicity [8]: -VE; MitoTox 3T3 [8]: -VE; TDI CYP3A4 [8]: -VE; hBSEP inhibition [8]: -VE; Partition Hybrid HRM Score [9]: +VE; Ro2 Hybrid HRM Score [9]: +VE
Cc1ccnc2c1NC(=O)c1cccnc1N2C1CC1 [nevirapine] | – | +VE | +VE | vMost-DILI-Concern | 8 | – | – | +VE | – | +VE | – | – | -VE | – | +VE | +VE | +VE | +VE | -VE | +VE | GSH adduct HML [8]: +VE; Hepatocyte cellular toxicity [8]: -VE; MitoTox 3T3 [8]: +VE; TDI CYP3A4 [8]: -VE; hBSEP inhibition [8]: -VE; Partition Hybrid HRM Score [9]: +VE; Ro2 Hybrid HRM Score [9]: -VE
